Experimental data: patent publication US20070021484A1, “Substituted N-cinnamyl benzamides” (ChemoCentryx, Inc., priority 2005, published 2007)
pIC50: −log10 of the molar value. Structures can show the parent of a compound that is named as a salt.

Target: T1, CCXCKR2 receptor (Homo sapiens, UniProt P25106)
T1 construct: The compounds were combined with mammary gland cells expressing the CCXCKR2 receptor in the presence of the ^125I-labeled chemokine; host or cells: MCF-7 (endogenous receptor) and/or MDA-MB-435S stably transfected with pcDNA3.1(+)-hRDC1
Assay: Displacement of 125I-labeled SDF-1 from the CCXCKR2 receptor (radioligand binding, determination of IC50 values)
Conditions: concentration displacing at least 50% of 125I SDF-1 from CCXCKR2; MCF-7 and/or CCXCKR2 transfected MDA-MB-435S cells; 3 hr at 4° C.
Experimental: The ability of the compounds to displace the labeled chemokine from the CCXCKR2 receptor sites at multiple concentrations was then determined with the screening process.
Compounds that were deemed effective modulators were able to displace at least 50% of the SDF-1 from the CCXCKR2 receptor at concentrations at or below 2.1 micromolar (μM), as represented by the notation (+) for certain exemplary compounds shown in Table B below, and more preferably at concentrations at or below 700 nanomolar (nM) (++). At present, especially preferred compounds can displace at least 50% of the SDF-1 from the CCXCKR2 receptor at concentrations at or below 500 nM (+++). As stated above, Exemplary compounds that met these criteria are reproduced in Table B below. All compounds were prepared as described in the Examples above, or by related methods substituting readily available starting materials.
Reagents and Cells. ^125I-labeled SDF-1 was purchased from Perkin-Elmer Life Sciences, Inc. (Boston, Mass.). The MCF-7 (adenocarcinoma; mammary gland) cell line was obtained from the American Type Culture Collection (Manassas, Va.) or and was cultured in DMEM (Mediatech, Herndon, Va.) supplemented with 10% fetal bovine serum (FBS) (HyClone Logan, Utah) and bovine insulin (0.01 mg/mL) (Sigma, St. Louis, Mo.) at 37° C. in a humidified incubator at a 5% CO2/air mixture. CCXCKR2 transfected MDA-MB-435S were produced as described below. MDA-MB-435S human breast cancer line, was purchased from ATCC, and cultured in DMEM/10% FBS medium. The complete coding sequence of the gene encoding CCXCKR2 (a.k.a.CXCR^7, hRDC1), was isolated from MCF-7 cells using μMACs mRNA isolation kit (Miltenyi Biotec, Auburn, Calif.). DNA contamination was removed by DNase digestion via RNeasy columns (Qiagen, Inc., Valencia, Calif.) and cDNA was generated using GeneAmp RNA PCR Core Kit (Applied Biosystems, Foster City, Calif.). PCR of cDNA samples was performed using Taq PCR Master Mix kit (Qiagen, Inc.) and hRDC1 primers harboring 5′ and 3′ Not I sites
Binding Analysis. Target compounds were tested to determine their ability to bind with CCXCKR2 sites on MCF-7 and/or MDA-MB-435S cells. Efficiency-maximized radioligand binding using filtration protocols as described in Dairaghi D J, et al., HHV8-encoded vMIP-I selectively engages chemokine receptor CCR5. Agonist and antagonist profiles of viral chemokines., J. Biol. Chem. 1999 Jul. 30; 274(31): 21569-74 and Gosling J, et al., Cutting edge: identification of a novel chemokine receptor that binds dendritic cell- and T cell-active chemokines including ELC, SLC, and TECK., J. Immunol. 2000 Mar. 15; 164(6):2851-6 was used.
In these assays, MCF-7 and/or MDA-MB-435S cells were interrogated with the target compounds and the ability of these compounds to displace ^125I radiolabeled SDF-1 was assessed using the protocol described in Dairaghi and Gosling. The target compounds were added to the plate to the indicated concentration and were then incubated with cells followed by the addition of radiolabeled chemokine (^125I SDF-1) for 3 hr at 4° C. in the following binding medium (25 mM HEPES, 140 mM NaCl, 1 mM CaCl2, 5 mM MgCl2 and 0.2% bovine serum albumin, adjusted to pH 7.1). All assays were then incubated for 3 hrs at 4° C. with gentle agitation. Following incubation in all binding assays, reactions were aspirated onto PEI-treated GF/B glass filters (Packard) using a cell harvester (Packard) and washed twice (25 mM HEPES, 500 mM NaCl, 1 mM CaCl2, 5 mM MgCl2, adjusted to pH 7.1). Scintillant (MicroScint 10, Packard) was added to the wells, and the filters were counted in a Packard Topcount scintillation counter. Data were analyzed and plotted using Prism (GraphPad Prism version 3.0a for Macintosh, GraphPad Software, www.graphpad.com).

T1 sequence (P25106 whole entry): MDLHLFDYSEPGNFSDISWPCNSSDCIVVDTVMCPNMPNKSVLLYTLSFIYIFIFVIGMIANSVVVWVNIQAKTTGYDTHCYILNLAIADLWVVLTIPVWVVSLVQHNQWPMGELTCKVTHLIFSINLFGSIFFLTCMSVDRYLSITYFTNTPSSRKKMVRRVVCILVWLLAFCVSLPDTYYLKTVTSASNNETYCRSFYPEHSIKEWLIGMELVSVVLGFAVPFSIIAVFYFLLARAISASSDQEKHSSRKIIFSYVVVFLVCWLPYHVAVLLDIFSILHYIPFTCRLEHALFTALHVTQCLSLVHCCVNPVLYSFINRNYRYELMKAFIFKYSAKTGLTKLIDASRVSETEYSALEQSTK

SMILES | pIC50
COc1cc(C(=O)N(C/C(C)=C/c2ccccc2)C[C@@H]2C[C@@H]3CCCC[C@@H]3N2)cc2c1OC(C)(C)O2 [Compound 1, 7-Methoxy-2,2-dimethyl-benzo[1,3]dioxole-5-carboxylic acid (2-methyl-3-phenyl-allyl)-[(2S,6S,7S)-1-(octahydro-indol-2-yl)methyl]-amide] | ≥ 6.30
COc1cc(C(=O)N(C/C(C)=C/c2ccccc2)C[C@@H]2C[C@@H]3CCC[C@@H]3N2)cc2c1OC(C)(C)O2 [Compound 2, 7-Methoxy-2,2-dimethyl-benzo[1,3]dioxole-5-carboxylic acid (2-methyl-3-phenyl-allyl)-[(2S,5S,6S)-1-(octahydro-cyclopenta[b]pyrrol-2-yl)methyl]-amide] | ≥ 6.30
COc1cc(C(=O)N(C/C(C)=C/c2ccc(F)cc2F)C[C@@H]2C[C@@H]3CCCC[C@@H]3N2)cc2c1OC(C)(C)O2 [Compound 4, 7-Methoxy-2,2-dimethyl-benzo[1,3]dioxole-5-carboxylic acid [(E)-3-(2,4-difluoro-phenyl)-2-methyl-allyl]-[(2S,3aS,7aS)-1-(octahydro-indol-2-yl)methyl]-amide] | ≥ 6.30
COc1ccc(C(=O)N(C/C(C)=C/c2ccc(F)cc2F)C[C@@H]2C[C@@H]3CCCC[C@@H]3N2)cc1OC [Compound 5, N-[(E)-3-(2,4-Difluoro-phenyl)-2-methyl-allyl]-3,4-dimethoxy-N-[(2S,3aS,7aS)-1-(octahydro-indol-2-yl)methyl]-benzamide] | ≥ 6.30
COc1cc(C(=O)N(C/C(C)=C/c2ccccc2)CC2CCCN2C[C@H]2CC[C@@H](NC(C)C)CC2)cc2c1OC(C)(C)O2 (stereo partly drawn) [Compound 6, Methoxy-2,2-dimethyl-benzo[1,3]dioxole-5-carboxylic acid [(S)-1-(4-isopropylamino-cyclohexylmethyl)-pyrrolidin-2-ylmethyl]-((E)-2-methyl-3-phenyl-allyl)-amide] | ≥ 6.30
COc1ccc(C(=O)N(C/C(C)=C/c2ccc(F)cc2F)C[C@@H]2CCCN2C[C@H]2CC[C@@H](N)C2)cc1OC [Compound 7, N-[(S)-1-((1S,3R)-3-Amino-cyclopentylmethyl)-pyrrolidin-2-ylmethyl]-N-[(E)-3-(2,4-difluoro-phenyl)-2-methyl-allyl]-3,4-dimethoxy-benzamide] | ≥ 6.30
COc1ccc(C(=O)N(C/C(C)=C/c2ccc(F)cc2F)C[C@@H]2CCCN2C[C@H]2CC[C@H](NS(C)(=O)=O)CC2)cc1OC [Compound 9, N-(S)-[(E)-3-(2,4-Difluoro-phenyl)-2-methyl-allyl]-N-[(S)-1-(4-methanesulfonylamino-cyclohexylmethyl)-pyrrolidin-2-ylmethyl]-3,4-dimethoxy-benzamide] | ≥ 6.30
COc1ccc(C(=O)N(C/C(C)=C/c2ccc(F)cc2F)C[C@@H]2CCCN2CC2CCC(N)CC2)cc1OC (stereo partly drawn) [Compound 10, N-[(S)-1-(4-Amino-cyclohexylmethyl)-pyrrolidin-2-ylmethyl]-N-[(E)-3-(2,4-difluoro-phenyl)-2-methyl-allyl]-3,4-dimethoxy-benzamide] | ≥ 6.30
COc1ccc(C(=O)N(C/C(C)=C/c2ccc(F)cc2F)C[C@@H]2CCCN2C[C@H]2CC[C@@H](N)CC2)cc1OC [Compound 13, N-[1-(4-amino-cyclohexylmethyl)-pyrrolidin-2-ylmethyl]-N-[3-(2,4-difluoro-phenyl)-2-methyl-allyl]-3,4-dimethoxy-benzamide] | ≥ 6.30
COc1ccc(C(=O)N(C/C(C)=C/c2ccc(F)cc2F)CC2CCC3COCCN32)cc1OC (stereo not drawn) [Compound 20] | ≥ 5.68

Results, then the molecule that gave them:

pIC50 | SMILES
≥ 6.30 | COc1cc(C(=O)N(C/C(C)=C/c2ccc(F)cc2F)C[C@@H]2CCCN2CC2(N(C)C)CCCC2)ccc1OC(F)F (stereo in doubt) [Compound 15, 4-Difluoromethoxy-N-[3-(2,4-difluoro-phenyl)-2-methyl-allyl]-N-[1-(1-dimethylamino-cyclopentylmethyl)-pyrrolidin-2-ylmethyl]-3-methoxy-benzamide]
≥ 6.30 | COc1cc(C(=O)N(C/C(C)=C/c2ccc(F)cc2F)C[C@@H]2C[C@@H]3CCCC[C@@H]3N2)ccc1OC(F)F [Compound 3, 4-Difluoromethoxy-N-[(E)-3-(2,4-difluoro-phenyl)-2-methyl-allyl]-3-methoxy-N-[(2S,3aS,7aS)-1-(octahydro-indol-2-yl)methyl]-benzamide]
≥ 6.30 | COc1cc(C(=O)N(C/C(C)=C/c2ccc(F)cc2F)C[C@@H]2CCCN2C[C@H]2CC[C@@H](NS(C)(=O)=O)CC2)ccc1OC(F)F [Compound 11]
≥ 6.30 | COc1cc(C(=O)N(C/C(C)=C/c2ccc(F)cc2F)C[C@H]2CCCN2C[C@H]2CC[C@@H](N)CC2)ccc1OC(F)F [Compound 14]
≥ 6.15 | COc1cc(C(=O)N(C/C(C)=C/c2ccc(F)cc2F)CC2CCCN2CC2(N)CCCC2)ccc1OC(F)F (stereo not drawn) [Compound 16, N-[1-(1-Amino-cyclopentylmethyl)-pyrrolidin-2ylmethyl]-4-difluoromethoxy-N-[3-(2,4-difluoro-phenyl)-2-methyl-allyl]-3-methoxy-benzamide]
≥ 6.30 | COc1cc(C(=O)N(C/C(C)=C/c2ccc(F)cc2F)CC2CCCN2CC2(NS(C)(=O)=O)CCCC2)ccc1OC(F)F (stereo not drawn) [Compound 17]
≥ 5.68 | COc1cc(C(=O)N(C/C(C)=C/c2ccc(F)cc2F)Cc2nccn2C)ccc1OC(F)F [Compound 18, 4-difluoromethoxy-N-[3-(2,4-difluoro-phenyl)-2-methyl-allyl]-3-methoxy-N-(1-methyl-1H-imidazol-2-ylmethyl)-benzamide]
≥ 6.30 | COc1ccc(C(=O)N(CC2=NCCN2)C/C(C)=C/c2ccc(F)cc2F)cc1OC [Compound 19, N-[(E)-3-(2,4-Difluoro-phenyl)-2-methyl-allyl]-N-(4,5-dihydro-1 H-imidazol-2-ylmethyl)-3,4-dimethoxy-benzamide hydrochloride]
